As usually defined, the Ki is the dissociation constant of the complex between target and ligand, obtained from inhibition or displacement.

The target in this experiment is T1, purified catalytic domain of recombinant human TACE (rhTACEc) (Homo sapiens, UniProt P78536, N452Q/S266A).
T1 construct: Residue 215 to 477 with two mutation (S266A and N452Q) and a 6×His tail; 6xHis (C); made in house; host or cells: baculovirus/Hi5 insect cells
The experiment in a line: TACE kinetic assay: cleavage of internally quenched peptide substrate SPDL-3, fluorescence. In kind it is biochemical. The following applies: read-out: Ki.

The mark [1] stands for this setting: TACE inhibitory activity, class symbols.
Setting [2] is: TACE, representative compounds, numeric values.

Where two headings read alike, the source gives them in different places.

T1 sequence (P78536 215-477 S266A/N452Q): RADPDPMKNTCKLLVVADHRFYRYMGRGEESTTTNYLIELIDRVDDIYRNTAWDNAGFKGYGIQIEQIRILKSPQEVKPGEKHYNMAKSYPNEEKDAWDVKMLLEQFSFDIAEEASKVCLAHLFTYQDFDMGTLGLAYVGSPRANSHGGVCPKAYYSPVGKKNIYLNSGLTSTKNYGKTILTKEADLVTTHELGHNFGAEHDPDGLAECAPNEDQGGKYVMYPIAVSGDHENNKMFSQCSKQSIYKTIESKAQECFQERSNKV

Regarding `CNc1nc([C@H]2c3ccccc3CCN2C(=O)[C@H](O)[C@@H](O)C(=O)N[C@H](C)c2ccc(-n3cccn3)cc2)cs1` [Compound 2586], under setting [1], the Ki was under 20 nM.

Take `CCNc1nc([C@H]2c3ccccc3CCN2C(=O)[C@H](O)[C@@H](O)C(=O)N[C@H](C)c2ccc(-n3cccn3)cc2)cs1` [Compound 2587]: the Ki under setting [1] is under 20 nM.

With `CC(C)Nc1nc([C@H]2c3ccccc3CCN2C(=O)[C@H](O)[C@@H](O)C(=O)N[C@H](C)c2ccc(-n3cccn3)cc2)cs1` [Compound 2588], under setting [1], the Ki is under 20 nM.

With `CC(C)Nc1nc([C@H]2c3ccc(Cl)cc3CCN2C(=O)[C@H](O)[C@@H](O)C(=O)N[C@H](C)c2ccc(-n3cccn3)cc2)cs1` [Compound 2589], the Ki under setting [1] was under 20 nM.

For `CC(C)Nc1nc([C@@H]2c3ccc(Cl)cc3CCN2C(=O)[C@H](O)[C@@H](O)C(=O)N[C@H](C)c2ccc(-n3cccn3)cc2)cs1` [Compound 2590], the Ki under setting [1] is under 20 nM.

As to `Cc1nc([C@H]2CCCN2C(=O)[C@H](O)[C@@H](O)C(=O)N[C@H](C)c2ccc(-n3cccn3)cc2)cs1` [Compound 2591], the Ki under setting [1] was under 20 nM.

On to `CC(C)Nc1nc([C@H]2c3ccccc3CN2C(=O)[C@H](O)[C@@H](O)C(=O)N[C@H](C)c2ccc(-n3cccn3)cc2)cs1` [Compound 2592], for which the Ki under setting [1] was under 20 nM.

As for `CC(C)Nc1nc([C@@H]2c3ccccc3CN2C(=O)[C@H](O)[C@@H](O)C(=O)N[C@H](C)c2ccc(-n3cccn3)cc2)cs1` [Compound 2593], the Ki under setting [1] is under 20 nM.

Turning to `CCNc1nc([C@H]2c3ccccc3CN2C(=O)[C@H](O)[C@@H](O)C(=O)N[C@H](C)c2ccc(-n3cccn3)cc2)cs1` [Compound 2594], under setting [1], the Ki is under 20 nM.

`CCNc1nc([C@@H]2c3ccccc3CN2C(=O)[C@H](O)[C@@H](O)C(=O)N[C@H](C)c2ccc(-n3cccn3)cc2)cs1` [Compound 2595]: the Ki under setting [1] was under 20 nM.

Consider `C[C@@H](NC(=O)[C@H](O)[C@@H](O)C(=O)N1CCc2cc(Cl)ccc2C1c1cc[nH]n1)c1ccc(-n2cccn2)cc1` (some centres unmarked) [Compound 2596], for which, under setting [1], the Ki is under 20 nM.

Take `C[C@@H](NC(=O)[C@H](O)[C@@H](O)C(=O)N1CCC[C@@H]1c1ccn(-c2ccccc2)n1)c1ccc(-n2cccn2)cc1` [Compound 2597]: the Ki under setting [1] is under 20 nM.

With `C[C@@H](NC(=O)[C@H](O)[C@@H](O)C(=O)N1CCC[C@@H]1c1ccn(-c2cccc(F)c2)n1)c1ccc(-n2cccn2)cc1` [Compound 2598], the Ki under setting [1] was under 20 nM.

As to `C[C@@H](NC(=O)[C@H](O)[C@@H](O)C(=O)N1CCC[C@@H]1c1ccn(-c2ccc(F)cc2)n1)c1ccc(-n2cccn2)cc1` [Compound 2599], the Ki under setting [1] was under 20 nM.

On to `C[C@@H](NC(=O)[C@H](O)[C@@H](O)C(=O)N1CCCC1c1nccs1)c1ccc(-n2cccn2)cc1` (some centres unmarked) [Compound 2600], for which the Ki under setting [1] was under 20 nM.

For the molecule `CC#CCOc1cc([C@@H](C)NC(=O)[C@H](O)[C@@H](O)C(=O)N2Cc3cccnc3C2)ccc1-n1cccn1` [drawing 1292], the Ki under setting [2] amounted to 0.25 nM.

On to `CNc1nc([C@H]2CCCN2C(=O)[C@H](O)[C@@H](O)C(=O)N[C@H](C)c2ccc(-n3cccn3)cc2)c(S(C)(=O)=O)s1` [drawing 1294], for which, under setting [2], the Ki turned out to be 0.38 nM.

As for `C[C@@H](NC(=O)[C@H](O)[C@@H](O)C(=O)N1CC=C[C@@H]1c1cccc(Cl)c1)c1ccc(-n2cccn2)cc1` [drawing 1295], the Ki under setting [2] was determined as 0.49 nM.

Take `CC(C)Nc1nc([C@H]2c3ccccc3CN2C(=O)[C@H](O)[C@@H](O)C(=O)N[C@H](C)c2ccc(-n3cccn3)cc2)cs1` [drawing 1298]: the Ki under setting [2] is 0.54 nM.

Consider `CNc1nc([C@H]2C=CCN2C(=O)[C@H](O)[C@@H](O)C(=O)N[C@H](C)c2ccc(-n3cccn3)cc2)cs1` [drawing 1300], for which the Ki under setting [2] came to 0.57 nM.

For the molecule `C[C@@H](NC(=O)[C@](C)(O)[C@@H](O)C(=O)N1CCCC1(C)c1cccc(Cl)c1)c1ccc(-n2cccn2)cc1` (some centres unmarked) [drawing 1303], the Ki under setting [2] is 0.75 nM.

In the case of `C[C@@H](NC(=O)[C@H](O)[C@@H](O)C(=O)N1CCC[C@@H]1c1cccc(Cl)c1)c1ccc(-n2cccn2)cc1` [drawing 1304], the Ki under setting [2] stood at 0.8 nM.

As to `CC#CCOc1cc([C@@H](C)NC(=O)[C@H](O)[C@@H](O)C(=O)N2CCC[C@@H]2c2cccc(Cl)c2)ccc1-n1cccn1` [drawing 1305], under setting [2], the Ki was determined as 0.85 nM.

For the molecule `COc1cc2c(cc1OC)C(c1ccccc1)N(C(=O)[C@H](O)[C@@H](O)C(=O)N[C@H](C)c1ccc(-n3cccn3)cc1)CC2` (some centres unmarked) [drawing 1306], the Ki under setting [2] was found to be 0.86 nM.

Take `CCNc1nc([C@@H]2c3ccccc3CN2C(=O)[C@H](O)[C@@H](O)C(=O)N[C@H](C)c2ccc(-n3cccn3)cc2)cs1` [drawing 1307]: the Ki under setting [2] is 0.89 nM.

Consider `C[C@@H](NC(=O)[C@H](O)[C@@H](O)C(=O)N1CCc2ccccc2[C@@H]1c1csc(N)n1)c1ccc(-n2cccn2)cc1` [drawing 1309], for which, under setting [2], the Ki is 1.1 nM.

As to `CNc1nc([C@H]2c3ccccc3CCN2C(=O)[C@H](O)[C@@H](O)C(=O)N[C@H](C)c2ccc(-n3cccn3)cc2)cs1` [drawing 1310], the Ki under setting [2] was 1.4 nM.

Take `CNc1nc([C@H]2C[C@H]3C[C@H]3N2C(=O)[C@H](O)[C@@H](O)C(=O)N[C@H](C)c2ccc(-n3cccn3)cc2)cs1` [drawing 1312]: the Ki under setting [2] was 1.4 nM.

Regarding `CC#CCOc1cc([C@@H](C)NC(=O)[C@](C)(O)[C@@H](O)C(=O)N2Cc3cccnc3C2)ccc1-n1cccn1` [drawing 1313], the Ki under setting [2] came out at 1.44 nM.

Regarding `CC#CCOc1cc([C@@H](C)NC(=O)[C@H](O)[C@@H](O)C(=O)N2CC=CC2c2cccc(Cl)c2)ccc1-n1cccn1` (some centres unmarked) [drawing 1314], the Ki under setting [2] amounted to 1.54 nM.

`CNc1nc([C@H]2CCCN2C(=O)[C@H](O)[C@@H](O)C(=O)N[C@H](C)c2ccc(-n3cccn3)cc2)c(C)s1` [drawing 1315]: the Ki under setting [2] amounted to 2 nM.

As for `CNc1nc([C@H]2CCCN2C(=O)[C@H](O)[C@@H](O)C(=O)N[C@H](C)c2ccc(-n3cccn3)cc2)c(C#N)s1` [drawing 1316], the Ki under setting [2] was found to be 2 nM.

On to `C[C@@H](NC(=O)[C@H](O)[C@@H](O)C(=O)N1CCC[C@@H]1c1ccn(-c2ccc(F)cc2)n1)c1ccc(-n2cccn2)cc1` [drawing 1317], for which the Ki under setting [2] came out at 2 nM.

`C[C@@H](NC(=O)[C@H](O)[C@@H](O)C(=O)N1CCC[C@@H]1c1ccn(-c2ccccc2)n1)c1ccc(-n2cccn2)cc1` [drawing 1318]: the Ki under setting [2] is 2.3 nM.

For the molecule `C[C@@H](NC(=O)[C@H](O)[C@@H](O)C(=O)N1CCC[C@@H]1c1ccn(-c2ccc(F)cc2)n1)c1ccc(-n2cccn2)cc1` [drawing 1320], under setting [2], the Ki came to 2.7 nM.

Turning to `C[C@@H](NC(=O)[C@H](O)[C@@H](O)C(=O)N1CCc2ccc(F)cc2C1)c1ccc(-n2cccn2)cc1` [drawing 1323], under setting [2], the Ki was found to be 3 nM.

As for `CC(C)Nc1nc([C@@H]2c3ccc(Cl)cc3CCN2C(=O)[C@H](O)[C@@H](O)C(=O)N[C@H](C)c2ccc(-n3cccn3)cc2)cs1` [drawing 1324], under setting [2], the Ki is 3.3 nM.

For `CNc1nc([C@H]2CC(F)(F)CN2C(=O)[C@H](O)[C@@H](O)C(=O)N[C@H](C)c2ccc(-n3cccn3)cc2)cs1` [drawing 1327], under setting [2], the Ki was determined as 3.9 nM.

The values are drawn from patent US7652020B2, “Compounds for the treatment of inflammatory disorders” (Schering Corporation, priority 2004, dated 2010).
